Literature values, collected in patent US12171237B2, “Insect repelling compositions and methods of manufacture thereof” (priority 2019, dated 2024).
Entries after “also recorded” stand apart in the source; their conditions may differ. Read-outs that look alike come from different tables or passages of the source.

Experiments:
female Ae. aegypti = conditions: Human-bait assay
[1] = test system: female Cx. pipiens pallens
[2] = test system: Cx. pipiens pallens, Cx. pipiens quinquefasciatus
female Ae. albopictus = conditions: spatial repellent, 0.25 μg·cm^−2, after 48 h exposure
Ae. albopictus = conditions: 1 h, 1.92 μg·cm^−2
Ae. aegypti = conditions: 1 h, 1.92 μg·cm^−2
Mosquito = conditions: d-α-pinene

SMILES | repellency (female Ae. aegypti; 1.4 mg·cm^−2) | repellency (‡) (Ae. albopictus) [%] | repellency (†) (Ae. aegypti) [%] | also measured
C=CC(C)(O)CCC=C(C)C (racemic) [Linalool] | ^a1.4 mg (±)-linalool · cm^−2 = 67% repellency | – | – | –
CC(C)=CCCC(C)CCO (centres unmarked) [Citronellol] | – | – | – | Repellency (in words) (female An. gambiae): repellent component; also recorded: feeding deterrent/repellent, spatial repellent/inhibitor
C=CCc1ccc(O)c(OC)c1 [Eugenol] | – | – | – | Repellency (in words) [1]: high repellency
CC(C)=CCC/C(C)=C/C=O [Geranial] | – | – | – | blood-sucking by mosquitoes reduced by ([2]; at 0.2 mg·cm^−2, after 1 h): 10%; blood-sucking by mosquitoes reduced by ([2]; at 0.2 mg·cm^−2, after 2 h): 15%; blood-sucking by mosquitoes reduced by ([2]; at 0.2 mg·cm^−2, after 3 h): 18%
CC(C)=CCC/C(C)=C/CO [Geraniol] | – | – | – | (reversible) inhibition of host-seeking (female Ae. albopictus): spatial repellent: 0.25 μg · cm^−2 ca. 100% (reversible)
CCCCCCCC/C=C\CCCCCCCC(=O)O [Oleic acid] | – | – | – | repellency (female Ae. aegypti; 0.4 mg·cm^−2, after 1 h): 0.4 mg · cm^−2 = 52% repellency after 1 h^a
CC1=CCC(O)(C(C)C)CC1 (centres unmarked) [Terpinen-4-ol] | ^a1.4 mg · cm^−2 = 83% repellency | 85 | 92 | –
CC1=CCC2CC1C2(C)C (stereo not drawn) [α-Pinene] | – | – | – | protection (Mosquito): d-α-pinene , 2 h protection
CC1=CC=C(C(C)C)CC1 [α-Terpinene] | ^a1.4 mg · cm^−2 = 15% repellency | 55 | 68 | –
CC1=CCC(C(C)C)=CC1 [γ-Terpinene] | – | 72 | 60 | –
